Assay results taken from US4263427A, “Monensin urethane derivatives” (priority 1979, dated 1981).
Converted amounts (≈) assume the structure as drawn. Like-named read-outs stand apart in the source and are kept apart here.

Experiments:
[1] = tested on: Eimeria tenella; assay: Anti-coccidial effect of monensin urethanes added to the feed of infected chickens (Table 7); format: in vivo; conditions: infected untreated control 3.0, less than 2.5 significant
Experimental: This test utilizes ten chickens per drug group. Ten chickens are employed as a weight control and ten chickens as an infected control. The drug is given 48 hours in advance of the infection. One gm. of the test drug is mixed in a mechanical mixer with a sufficient amount of chicken feed to result in the desired dosage. The infection consists of approximately 200,000 oocysts given orally by pipette. The tests lasts for eleven days and then the surviving birds are autopsied and examined for gross lesions in the ceca. The test birds are rated according to the number of survivors and the number of cecal lesions. The results are expressed as average degree of infection (A.D.I.). An average degree of infection of less than 2.5 is considered to be significant.

[2] = tested on: Treponema hyodysenteriae; assay: Activity against Treponema hyodysenteriae (MIC, blood agar plates); format: cell-based; conditions: 42° C., anaerobic
Text: Testing for activity against Treponema hyodysenteriae, a cause of swine dysentery consisted of inoculation of blood agar plates containing a series of two or fourfold dilutions of the monensin urethane derivatives with tenfold dilutions of the T. hyodysenteriae strain.

[3] = tested on: Streptococcus cellulosac 3313; assay: Minimum Inhibitory Concentration, agarwell diffusion assay (Table 6); format: cell-based; conditions: Streptococcus, 3313, read-out: Minimum Inhibitory Concentration, Streptococcus cellulosac 3313
Text: (§1) (a) Lowest twofold dilution giving zone of inhibition in the agarwell
(§2) (b) NRRL collection number, all the rest ate ATCC numbers.

[4] = tested on: Paceilomyces variotl 25820; assay: as above; format: cell-based; conditions: read-out: Minimum Inhibitory Concentration, Paceilomyces variotl 25820
Text: as §1, §2

[5] = tested on: Bacillus megaterium 8CU; assay: as above; format: cell-based; conditions: Priestia megaterium, 8CU, read-out: Minimum Inhibitory Concentration, Bacillus megaterium 8CU
Text: as §1, §2

[6] = tested on: Sarcina lutca 9341; assay: as above; format: cell-based; conditions: Sarcina, 9341, read-out: Minimum Inhibitory Concentration, Sarcina lutca 9341
Text: as §1, §2

[7] = tested on: Bacillus sp. TA 27860; assay: as above; format: cell-based; conditions: Bacillus
Text: as §1, §2

[8] = tested on: Bacillus sp. E 27859; assay: as above; format: cell-based; conditions: Bacillus
Text: as §1, §2

[9] = tested on: MycoBacterium phiel 355; assay: as above; format: cell-based; conditions: Mycobacterium, 355, read-out: Minimum Inhibitory Concentration, MycoBacterium phiel 355
Text: as §1, §2

[10] = tested on: Staph. aureus 6538; assay: as above; format: cell-based; conditions: Staphylococcus aureus, 6538, read-out: Minimum Inhibitory Concentration, Staph. aureus 6538
Text: as §1, §2

[11] = tested on: Bacillus subtilis 583; assay: as above; format: cell-based
Text: as §1, §2

[12] = tested on: Streptococcus faecium 8043; assay: as above; format: cell-based
Text: as §1, §2

[13] = Oral antihypertensive activity: blood pressure and heart rate (Table 9); format: in vivo
Text: Compounds of formula I, and their pharmaceutically acceptable salts are orally active as antihypertensive agents.

[14] = tested on: Plasmodium berghei; assay: Oral antimalarial activity against Plasmodium berghei in mice; format: in vivo; conditions: p.o.
Text: Compounds of formula I wherein R4 is aryl, haloaryl or nitroaryl and their pharmaceutically acceptable salts are orally active as antimalarial agents.

[15] = SP.TA27860, Bacillus sp. TA 27860, read-out: Minimum Inhibitory Concentration
[16] = SP.E27859, Bacillus sp. E 27859, read-out: Minimum Inhibitory Concentration
[17] = Bacillus subtilis, 583, Bacillus subtilis 583 (NRRL), read-out: Minimum Inhibitory Concentration
[18] = Enterococcus faecium, 8043, Streptococcus faecium 8043, read-out: Minimum Inhibitory Concentration
[19] = Brachyspira hyodysenteriae, 48 h

Compound	Average Degree of Infected (A.D.I.) ([1]; 75 ppm in feed)	MIC [3] [µg/mL]	MIC [4] [µg/mL]	MIC [5] [µg/mL]	MIC [6] [µg/mL]	MIC [7, 15] [µg/mL]	MIC [8, 16] [µg/mL]	MIC [9] [µg/mL]	MIC [10] [µg/mL]	MIC [11, 17] [µg/mL]	MIC [12, 18] [µg/mL]	MIC [2, 19] [µg/mL]	Average Degree of Infected (A.D.I.) ([1]; 125 ppm in feed)	further results
CCC1(C2OC(C3OC(O)(COC(=O)Nc4ccc([N+](=O)[O-])cc4)C(C)CC3C)CC2C)CCC(C2(C)CCC3(CC(O)C(C)C(C(C)C(OC)C(C)C(=O)O)O3)O2)O1 (stereo not shown) [Monensin A, 4-nitrophenylurethane]	0.5													
Monensin A, 2-phenylurethane														MIC ([2]; 48 hours): 0.4 meg/ml
CCC1(C2OC(C3OC(O)(COC(=O)NC4CC4c4ccccc4)C(C)CC3C)CC2C)CCC(C2(C)CCC3(CC(O)C(C)C(C(C)C(OC)C(C)C(=O)O)O3)O2)O1 (stereo not shown) [Monensin A, 2-(phenyl)-cyclopropyl urethane]		12.5 (≈ 15.1 µM)	6.3 (≈ 7.59 µM)	0.8 (≈ 0.964 µM)	0.8 (≈ 0.964 µM)	0.4 (≈ 0.482 µM)	0.4 (≈ 0.482 µM)	3.1 (≈ 3.73 µM)	3.1 (≈ 3.73 µM)	0.8 (≈ 0.964 µM)	0.2 (≈ 0.241 µM)	0.4 (≈ 0.482 µM)		
CCC1(C2OC(C3OC(O)(COC(=O)Nc4ccccc4)C(C)CC3C)CC2C)CCC(C2(C)CCC3(CC(O)C(C)C(C(C)C(OC)C(C)C(=O)O)O3)O2)O1 (stereo not shown) [Monensin A, phenylurethane]	0.9	3.1 (≈ 3.92 µM)	3.1 (≈ 3.92 µM)	0.4 (≈ 0.506 µM)	0.8 (≈ 1.01 µM)	0.4 (≈ 0.506 µM)	0.05 (≈ 0.0633 µM)	3.1 (≈ 3.92 µM)	0.8 (≈ 1.01 µM)	0.4 (≈ 0.506 µM)	0.1 (≈ 0.127 µM)	0.08 to 0.4 (≈ 0.101 to 0.506 µM)		Day of Maximum Change, Blood Pressure ([13]; oral dose 10 mg/kg): 2 days; Maximum Change (%), Blood Pressure ([13]; oral dose 10 mg/kg): 26%; Mean Blood Pressure at time of maximum effect ([13]; oral dose 10 mg/kg): 170 mm Hg; Mean Blood Pressure before treatment ([13]; oral dose 10 mg/kg): 229 mm Hg; ED50 [14]: 4 mg/kg
CCC1(C2OC(C3OC(O)(COC(=O)NC4CCCCC4)C(C)CC3C)CC2C)CCC(C2(C)CCC3(CC(O)C(C)C(C(C)C(OC)C(C)C(=O)O)O3)O2)O1 (stereo not shown) [Monensin A, cyclohexylurethane]		3.1 (≈ 3.89 µM)	3.1 (≈ 3.89 µM)	0.4 (≈ 0.502 µM)	0.8 (≈ 1 µM)			3.1 (≈ 3.89 µM)	1.6 (≈ 2.01 µM)			0.4 (≈ 0.502 µM)	0.8	MIC ([7]; SP.TA27860, read-out: Minimum Inhibitory Concentration, Bacillus sp. TA 27860): 0.6 µg/mL (≈ 0.754 µM); MIC ([8]; SP.E27859, read-out: Minimum Inhibitory Concentration, Bacillus sp. E 27859): 0.2 µg/mL (≈ 0.251 µM); MIC ([11]; Bacillus subtilis, 583, read-out: Minimum Inhibitory Concentration, Bacillus subtilis 583 (NRRL)): 0.8 µg/mL (≈ 1 µM); MIC ([12]; Enterococcus faecium, 8043, read-out: Minimum Inhibitory Concentration, Streptococcus faecium 8043): 0.1 µg/mL (≈ 0.126 µM)
CCC1(C2OC(C3OC(O)(COC(=O)Nc4ccc(F)cc4)C(C)CC3C)CC2C)CCC(C2(C)CCC3(CC(O)C(C)C(C(C)C(OC)C(C)C(=O)O)O3)O2)O1 (stereo not shown) [Monensin A, 4-fluorophenylurethane]		3.1 (≈ 3.84 µM)	3.1 (≈ 3.84 µM)	0.4 (≈ 0.495 µM)	0.8 (≈ 0.99 µM)	0.8 (≈ 0.99 µM)	0.2 (≈ 0.248 µM)	3.1 (≈ 3.84 µM)	1.6 (≈ 1.98 µM)	0.8 (≈ 0.99 µM)	0.1 (≈ 0.124 µM)	0.08 (≈ 0.099 µM)	1.0	Day of Maximum Change, Blood Pressure ([13]; oral dose 3 mg/kg): 2 days; Maximum Change (%), Blood Pressure ([13]; oral dose 3 mg/kg): 17%; Mean Blood Pressure at time of maximum effect ([13]; oral dose 3 mg/kg): 182 mm Hg; Mean Blood Pressure before treatment ([13]; oral dose 3 mg/kg): 220 mm Hg
